In patent US11285227B2, “Trifunctional constructs with tunablepharmacokinetics useful in imaging and anti-tumor therapies” (CORNELL UNIVERSITY, priority 2017, dated 2022):
Where two headings read alike, the source gives them in different places. Marks after values point to notes of the source that are not given here.

Tests used:
[1] = test system: LNCaP xenograft tumor-bearing mice; assay: Biodistribution studies of 177Lu-labeled ligands in LNCaP xenograft mice; type: in vivo; conditions: for Max. Tumor Uptake: corresponding 177Lu-labeled compound
Experimental: (§1) Inoculation of mice with xenografts: All animal studies were approved by the Institutional Animal Care and Use Committee of Weill Cornell Medicine and were undertaken in accordance with the guidelines set forth by the USPHS Policy on Humane Care and Use of Laboratory Animals. Animals were housed under standard conditions in approved facilities with 12 h light/dark cycles. Food and water was provided ad libitum throughout the course of the studies. Hairless male nu/nu mice were purchased from the Jackson Laboratory. For inoculation in mice, LNCaP cells were suspended at 4×10^7 cells/mL in a 1:1 mixture of PBS:Matrigel (BD Biosciences). Each mouse was injected in the left flank with 0.25 mL of the cell suspension. The mice were imaged when the tumors reached approximately 200-400 mm^3, while biodistributions were conducted when tumors were in the range 100-400 mm^3.
Biodistribution studies of ^177Lu-labeled ligands in LNCaP xenograft mice: LNCaP xenograft tumor-bearing mice (5 per time point per compound) were injected intravenously with a bolus injection of 348-851 kBq (9.4-23 μCi) and 37-50 ng (23-25 pmol) of each ligand. The mice were sacrificed at 4, 24 and 96 h post injection. A blood sample was removed, and a full biodistribution study was conducted on the following organs (with contents): heart, lungs, liver, small intestine, large intestine, stomach, spleen, pancreas, kidneys, muscle, bone and tumor. Tissues were weighed and counted on a 2470 Wizard^2 Automatic Gamma Counter (Perkin Elmer). Counts were corrected for decay and for activity injected, and tissue uptake was expressed as percent injected dose per gram (% ID/g). Standard error measurement was calculated for each data point.

[2] = test system: LNCaP xenograft tumor-bearing mice; assay: Dosimetry (dose integrals from 177Lu biodistribution); type: in vivo
Experimental: Dosimetry: The dosimetry was calculated assuming a linear interpolation between the three time points. The average injected dose per organ was calculated by using the average of the activity and organ weights of the mice at that time point. Intermediate time points at every 4 hours were generated using the linear approximation and all time points were corrected for decay during the time interval between points. These curves were integrated using a trapezoidal approximation and the sum used to determine the residence time.

PSMA on LNCaP cells = PSMA on LNCaP cells (Homo sapiens, UniProt Q04609); assay: Multi-concentration competitive binding assay against 99mTc-MIP-1427 (Section 1.3); set-up: host or cells: LNCaP
Chain of PSMA on LNCaP cells (Q04609 whole entry): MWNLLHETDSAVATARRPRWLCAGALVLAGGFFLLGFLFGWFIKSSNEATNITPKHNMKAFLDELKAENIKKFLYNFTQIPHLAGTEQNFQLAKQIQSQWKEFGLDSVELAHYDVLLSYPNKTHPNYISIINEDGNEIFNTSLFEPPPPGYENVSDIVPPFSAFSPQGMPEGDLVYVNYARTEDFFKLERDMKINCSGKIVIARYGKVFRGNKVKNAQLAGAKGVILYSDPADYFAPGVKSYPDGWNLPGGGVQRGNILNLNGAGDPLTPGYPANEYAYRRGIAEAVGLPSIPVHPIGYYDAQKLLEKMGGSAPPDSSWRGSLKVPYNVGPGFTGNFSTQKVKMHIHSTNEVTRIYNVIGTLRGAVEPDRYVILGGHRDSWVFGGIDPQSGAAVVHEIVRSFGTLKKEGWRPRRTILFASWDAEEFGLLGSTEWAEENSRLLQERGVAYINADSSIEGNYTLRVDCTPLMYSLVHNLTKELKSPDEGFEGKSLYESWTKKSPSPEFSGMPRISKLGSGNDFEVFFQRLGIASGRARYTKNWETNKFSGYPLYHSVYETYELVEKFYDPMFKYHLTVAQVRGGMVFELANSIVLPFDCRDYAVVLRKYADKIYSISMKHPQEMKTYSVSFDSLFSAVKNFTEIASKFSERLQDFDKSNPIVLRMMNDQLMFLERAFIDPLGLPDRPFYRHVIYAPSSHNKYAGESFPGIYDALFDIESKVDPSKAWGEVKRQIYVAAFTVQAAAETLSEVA
Experimental: Cell Culture: The PSMA expressing human prostate cancer cell line, LNCaP, was obtained from the American Type Culture Collection. Cell culture supplies were obtained from Invitrogen unless otherwise noted. LNCaP cells were maintained in RPMI-1640 medium supplemented with 10% fetal bovine serum (Hyclone), 4 mM L-glutamine, 1 mM sodium pyruvate, 10 mM N-2-hydroxyethylpiperazine-N-2-ethanesulfonic acid (HEPES), 2.5 mg/mL D-glucose, and 50 μg/mL gentamicin in a humidified incubator at 37° C./5% CO2. Cells were removed from flasks for passage or for transfer to 12-well assay plates by incubating them with 0.25% trypsin/ethylenediaminetetraacetic acid (EDTA).
In vitro determination of IC50: IC50 values of the non-labeled, metal-free ligands were determined by screening in a multi-concentration competitive binding assay against ^99mTc-((7S,12S,16S)-1-(1-(carboxymethyl)-1H-imidazol-2-yl)-2-((1-(carboxymethyl)-1H-imidazol-2-yl)methyl)-9,14-dioxo-2,8,13,15-tetraazaoctadecane-7,12,16,18-tetracarboxylic acid technetium tricarbonyl complex) (^99mTc-MIP-1427) for binding to PSMA on LNCaP cells, according to previously described methods [18,19] with small modifications. Briefly, LNCaP cells were plated 48 h prior to the experiment to achieve a density of approximately 5×10^5 cells/well (in triplicate) in RPMI-1640 medium supplemented with 0.25% bovine serum albumin. The cells were incubated for 2 h with 1 nM ^99mTc-MIP-1427 in serum-free RPMI-1640 medium in the presence of 0.001-10,000 nM test compounds. Radioactive incubation media was then removed by pipette and the cells were washed twice using 1 mL ice-cold PBS 1× solution. Cells were harvested from the plates following treatment with 1 mL 1M NaOH and transferred to tubes for radioactive counting using a 2470 Wizard^2 Automatic Gamma Counter (Perkin Elmer). Standard solutions (10% of activity added to each well) were prepared to enable decay correction. IC50 values were determined by fitting the data points to a sigmoidal Hills1 curve in Origin software.

[3] = test system: LNCaP xenograft tumor-bearing mice; assay: µPET/CT imaging of 66Ga-RPS ligands in LNCaP xenograft mice; type: in vivo
Experimental: as §1
Imaging of ^66Ga-RPS ligands in LNCaP xenograft mice: LNCaP xenograft tumor-bearing mice (2-3 per compound) injected intravenously with a bolus injection of 0.56-5.4 MBq (15-145 μCi) of the ^66Ga-labeled ligand. The specific activity of the tracers was in the range 14.8-47 MBq/pmol (0.4-1.27 mCi/pmol). The mice were imaged using μPET/CT (Inveon™; Siemens Medical Solutions, Inc.) at 1, 3, 6 and 24 h post-injection following inhalation anesthetization with isoflurane. Total acquisition time was 30 min for the 1 h, 3 h and 6 h images, and 60 min for 24 h time point. A CT scan was obtained immediately before the acquisition for both anatomical co-registration and attenuation correction. Images were reconstructed using the Inveon™ software supplied by the vendor. Image-derived tumor and kidney uptake was estimated by comparison to a 10% injected dose per cubic mm (% ID/mm^3) standard introduced into the imaging field of view. The standard was prepared by dilution of 10% of the injected activity to 1 mL with saline. Volumes of interest (VOIs) were drawn with the aid of the CT and confirmed by PET. The contents of the VOIs were integrated and the calculated counts were converted to % ID/mm^3 by direct comparison to the aforementioned standard following correction for activity injected.

[4] = C57BL/6 mice, tail vein, 10-50 kBq; 15 min, 1 h, 5 h
Experimental: C57BL/6 mice were injected via tail vein with 10-50 kBq of each radiometal complex and were sacrificed after 15 min, 1 h, or 5 h.

[5] = non-labeled, metal-free ligands, competitive binding in LNCaP cells vs 1 nM 99mTc-MIP-1427, 2 h, read-out: IC50

For `O=C(O)CCC(NC(=O)NC(CCCCNC(=O)Nc1cccc(-c2cnnn2CC(=O)NC(CCCCNC(=S)Nc2ccc(CC3CN(CC(=O)O)CCN(CC(=O)O)CCN(CC(=O)O)CCN3CC(=O)O)cc2)C(=O)NC(CCCCNC(=O)Cc2ccc(I)cc2)C(=O)O)c1)C(=O)O)C(=O)O` (stereo not shown) [^177Lu-RPS-068, metal not drawn], the “Tumor uptake (in words)” value ([1]; 4-96 h p.i.) was “high and remained high”, the “Blood activity (in words)” value ([1]; 4 h p.i.) was “highest blood activity” and the Tumor uptake ([1]; 4 h p.i.) was 21.8±2.8 % ID/g. It also gave a Kidney uptake ([1]; 24 h p.i.) of 87.3±6.7 % ID/g, a Tumor uptake ([1]; 96 h p.i.) of 14.9±1.5 % ID/g and a Tumor-to-kidney ratio ([1]; 96 h p.i.) of 1.56±0.23. For the same compound, the “Dose integral in the tumor relative to 177Lu-PSMA-617” value ([2]; over 96 h) was “nearly four times higher”.

With `O=C(O)CC[C@H](NC(=O)N[C@@H](CCCCNC(=O)Nc1cccc(-c2cnnn2CC(=O)N[C@@H](CCCCNC(=S)Nc2ccc(CC3CN(CC(=O)O)CCN(CC(=O)O)CCN(CC(=O)O)CCN3CC(=O)O)cc2)C(=O)N[C@@H](CCCCNC(=O)Cc2ccc(I)cc2)C(=O)O)c1)C(=O)O)C(=O)O` (stereo partly drawn) [RPS-068, (((1S)-1-carboxy-5-(3-(3-(1-(2-(((2S)-1-(((S)-1-carboxy-5-(2-(4-iodophenyl)acetamido)pentyl)amino)-1-oxo-6-(3-(4-((1,4,7,10-tetrakis(carboxymethyl)-1,4,7,10-tetraazacyclododecan-2-yl)methyl)phenyl)thioureido)hexan-2-yl)amino)-2-oxoethyl)-1H-1,2,3-triazol-5-yl)phenyl)ureido)pentyl)carbamoyl)-L-glutamic acid] the IC50 (PSMA on LNCaP cells; [5]) was 2.1 ± 0.1 nM and the “Max. Tumor Uptake” value ([1]; b = 24 h p.i.) was 26.9 ± 2.0^b % ID/g.

For `O=C(O)CCC(NC(=O)NC(CCCCNC(=O)Nc1cccc(-c2cnnn2CC(=O)NC(CCCCNC(=S)Nc2ccc(CC3CN(CC(=O)O)CCN(CC(=O)O)CCN(CC(=O)O)CCN3CC(=O)O)cc2)C(=O)NC(CCCCNC(=O)Cc2ccc(I)cc2)C(=O)O)c1)C(=O)O)C(=O)O` (stereo not shown) [^66Ga-RPS-068, metal not drawn], the “Kidney uptake (image-derived)” value ([3]; 24 h post injection) was 1.9±0.3 % ID/cm^3 and the “Maximum tumor uptake (image-derived)” value ([3]; maximum at 3 h post injection) was 9.7±2.0 % ID/cm^3.

In the case of `O=C([O-])c1cccc(CN2CCOCCOCCN(Cc3cccc(C(=O)[O-])n3)CCOCCOCC2)n1.[225Ac+3]` [[^225Ac(macropa)]^+], the “Biodistribution profile (clearance)” value [4] is reported as “rapidly cleared from mice, with very little activity measured in blood by 1 h post injection” and the “Organ accumulation / in vivo stability of the complex” value [4] is reported as “did not accumulate in any organ”.

In the case of `O=C(O)CCC(NC(=O)NC(CCCCNC(=O)C(Cc1ccc2ccccc2c1)NC(=O)C1CCC(CNC(=O)CN2CCN(CC(=O)O)CCN(CC(=O)O)CCN(CC(=O)O)CC2)CC1)C(=O)O)C(=O)O` (stereo not shown) [^66Ga-PSMA-617, metal not drawn, reference compound], the “Tumor uptake (image-derived)” value ([3]; 24 h post injection) is reported as 1.1±0.4 % ID/cm^3 and the “Maximum tumor uptake (image-derived)” value ([3]; maximum at 1 h post injection) is reported as 3.1±0.4 % ID/cm^3.

With `O=C(O)CC[C@H](NC(=O)N[C@@H](CCCCNC(=O)Nc1cccc(-c2cn(CCOCCOCCOCCOCCOCCOCCOCCOCCC(=O)N[C@@H](CCCCNC(=S)Nc3ccc(CC4CN(CC(=O)O)CCN(CC(=O)O)CCN(CC(=O)O)CCN4CC(=O)O)cc3)C(=O)N[C@@H](CCCCNC(=O)Cc3ccc(I)cc3)C(=O)O)nn2)c1)C(=O)O)C(=O)O` (stereo partly drawn) [RPS-066, (((1S)-1-carboxy-5-(3-(3-(1-((29S,32S)-32-carboxy-39-(4-iodophenyl)-27,30,38-trioxo-29-(4-(3-(4-((1,4,7,10-tetrakis(carboxymethyl)-1,4,7,10-tetraazacyclododecan-2-yl)methyl)phenyl)thioureido)butyl)-3,6,9,12,15,18,21,24-octaoxa-28,31,37-triazanonatriacontyl)-1H-1,2,3-triazol-4-yl)phenyl)ureido)pentyl)carbamoyl)-L-glutamic acid] the IC50 (PSMA on LNCaP cells; [5]) was 5.2 nM and the “Max. Tumor Uptake” value ([1]; a = 4 h p.i.) was 18.7 % ID/g.

For `O=C([O-])CN1CCN(CC(=O)[O-])CCN(CC(=O)[O-])CCN(CC(=O)[O-])CC1.[225Ac+3]` [[^225Ac(DOTA)]^−, reference compound], the “Biodistribution profile (clearance)” value [4] was “appeared to clear more rapidly through the urine”.

In the case of `O=C(O)CCC(NC(=O)NC(CCCCNC(=O)C(Cc1ccc2ccccc2c1)NC(=O)C1CCC(CNC(=O)CN2CCN(CC(=O)O)CCN(CC(=O)O)CCN(CC(=O)O)CC2)CC1)C(=O)O)C(=O)O` (stereo not shown) [PSMA-617, reference compound], the IC50 (PSMA on LNCaP cells; [5]) is reported as 6.6 ± 0.7 nM and the “Max. Tumor Uptake” value ([1]; a = 4 h p.i.) is reported as 14.4 ± 2.5 % ID/g.

For `O=C(O)CC[C@H](NC(=O)N[C@@H](CCCCNC(=O)Nc1cccc(-c2cn(CCOCCOCCOCCOCCOCCOCCC(=O)N[C@@H](CCCCNC(=S)Nc3ccc(CC4CN(CC(=O)O)CCN(CC(=O)O)CCN(CC(=O)O)CCN4CC(=O)O)cc3)C(=O)N[C@@H](CCCCNC(=O)Cc3ccc(I)cc3)C(=O)O)nn2)c1)C(=O)O)C(=O)O` (stereo partly drawn) [RPS-069, (((1S)-1-carboxy-5-(3-(3-(1-((23S,26S)-26-carboxy-33-(4-iodophenyl)-21,24,32-trioxo-23-(4-(3-(4-((1,4,7,10-tetrakis(carboxymethyl)-1,4,7,10-tetraazacyclododecan-2-yl)methyl)phenyl)thioureido)butyl)-3,6,9,12,15,18-hexaoxa-22,25,31-triazatritriacontyl)-1H-1,2,3-triazol-4-yl)phenyl)ureido)pentyl)carbamoyl)-L-glutamic acid], the IC50 (PSMA on LNCaP cells; [5]) was 3.8 nM and the “Max. Tumor Uptake” value ([1]; a = 4 h p.i.) was 17.0 % ID/g.

For `O=C(O)CC[C@H](NC(=O)N[C@@H](CCCCNC(=O)Nc1cccc(-c2cn(CCOCCOCCOCCC(=O)N[C@@H](CCCCNC(=S)Nc3ccc(CC4CN(CC(=O)O)CCN(CC(=O)O)CCN(CC(=O)O)CCN4CC(=O)O)cc3)C(=O)N[C@@H](CCCCNC(=O)Cc3ccc(I)cc3)C(=O)O)nn2)c1)C(=O)O)C(=O)O` (stereo partly drawn) [RPS-063, (((1S)-1-carboxy-5-(3-(3-(1-((14S,17S)-17-carboxy-24-(4-iodophenyl)-12,15,23-trioxo-14-(4-(3-(4-((1,4,7,10-tetrakis(carboxymethyl)-1,4,7,10-tetraazacyclododecan-2-yl)methyl)phenyl)thioureido)butyl)-3,6,9-trioxa-13,16,22-triazatetracosyl)-1H-1,2,3-triazol-4-yl)phenyl)ureido)pentyl)carbamoyl)-L-glutamic acid], the IC50 (PSMA on LNCaP cells) was 1.5 ± 0.3 nM and the “Max. Tumor Uptake” value ([1]; a = 4 h p.i.) was 30.0 % ID/g.

With `O=C(O)CC[C@H](NC(=O)N[C@@H](CCCCNC(=O)Nc1cccc(-c2cn(CCOCCOCCOCCOCCC(=O)N[C@@H](CCCCNC(=S)Nc3ccc(CC4CN(CC(=O)O)CCN(CC(=O)O)CCN(CC(=O)O)CCN4CC(=O)O)cc3)C(=O)N[C@@H](CCCCNC(=O)Cc3ccc(I)cc3)C(=O)O)nn2)c1)C(=O)O)C(=O)O` (stereo partly drawn) [RPS-061, (((1S)-1-carboxy-5-(3-(3-(1-((17S,20S)-20-carboxy-27-(4-iodophenyl)-15,18,26-trioxo-17-(4-(3-(4-((1,4,7,10-tetrakis(carboxymethyl)-1,4,7,10-tetraazacyclododecan-2-yl)methyl)phenyl)thioureido)butyl)-3,6,9,12-tetraoxa-16,19,25-triazaheptacosyl)-1H-1,2,3-triazol-4-yl)phenyl)ureido)pentyl)carbamoyl)-L-glutamic acid] the IC50 (PSMA on LNCaP cells; [5]) was 4.1 nM and the “Max. Tumor Uptake” value ([1]; a = 4 h p.i.) was 20.4 % ID/g.

`O=C(O)CCC(NC(=O)NC(CCCCNC(=O)C(Cc1ccc2ccccc2c1)NC(=O)C1CCC(CNC(=O)CN2CCN(CC(=O)O)CCN(CC(=O)O)CCN(CC(=O)O)CC2)CC1)C(=O)O)C(=O)O` (stereo not shown) [^177Lu-PSMA-617, metal not drawn, reference compound] gave a Kidney uptake ([1]; 4 h p.i.) of 14.1±3.1 % ID/g, a Tumor uptake ([1]; 4 h p.i.) of 14.4±1.1 % ID/g and a Tumor uptake ([1]; 96 h p.i.) of 3.5±0.3 % ID/g. The Tumor-to-kidney ratio ([1]; 96 h p.i.) was 14.39±2.2 and the “Ratio of tumor dose integral to kidney dose integral” value ([2]; over the 96 h) was 1.95.
